Source: patent publication US4407799A, “2-Substituted-phenyl-1,3-perhydrothiazine-4-one” (priority 1980, dated 1983)

Experiments:
[1] = system: peptic ulcer due to pyloric ligation; experiment: Effect on peptic ulcer due to pyloric ligation; format: in vivo, male rats; settings: 100 mg/kg, intraperitoneal, rats; for Ulcer coefficient: just after pyloric ligation, 15 hours; for Rate of suppression of ulcer: pyloric ligation, versus control
Experimental: Six groups (10 animals per group) of male rats weighing 180 to 200 g were subjected to ligation of their pyloruses under ether-anesthesia after fasting for 48 hours according to the method of Shay et al. (refer to Gastroenterology, 5, page 43 (1945)).
Just after subjecting to ligation, each of the present compound suspended in an aqueous physiological saline solution was intraperitoneally administered to each rat, the control being injected with an aqueous physiological saline solution. Then, after 15 hours of fasting without taking water, the rats were sacrificed with ether and their stomachs were removed to examine under a microscope for anatomy. The length and width of the thus-formed ulcer in the stomach were determined and expressed by the product (mm^2), and the total sum of the products was represented as the ulcer coefficient.

[2] = system: duodenal peptic ulcer due to acetic acid; experiment: Effect on peptic ulcer due to acetic acid (duodenal ulcer); format: in vivo, male rats; settings: 100 mg/kg, oral, rats; for Ulcer coefficient: 3 times a day for 10 days from third day; for Rate of suppression of ulcer: 3 times a day for 10 days, versus control
Excerpt: The inventors of the present invention, taking into account of these situations, added to the above-mentioned method of evaluation the effect of accelerating the cure of the peptic ulcer by orally administering the present compound and a commercialized anti-peptic ulcer medicine, respectively to rats to which duodenal peptic ulcer due to acetic acid (refer to Okabe, 1971) considered to be most closely resembling to human peptic ulcer has been artificially formed.
Following the method of Okabe et al (refer to Amer. J. Dig. Dis., 16, […]), 6 groups (15 animals per group) of male rats weighing 240 to 260 g were subjected to laparotomy under ether anesthesia in which a metal circular frame was placed on the serosa at a distance of 5 to 7 mm from the duodenal pylorus, 0.06 ml of glacial acetic acid was poured into the frame. After 30 seconds, the liquid containing the acetic acid was removed and then the frame was removed. The test compound suspended in an aqueous 0.5% solution of carboxymethylcellulose was orally administered to the rat 3 times a day from the third day of the operation for consecutive 10 days. To the control group, only the solution of carboxymethylcellulose was administered. After the administration was over, the rats were sacrificed with ether, and their duodenum was removed to observe under a microscope for anatomy. The length and width of the thus-formed ulcer were measured and their product (expressed with mm^2) was recorded as the ulcer coefficient.
By the way, the above-mentioned experimental model has been highly evaluated internationally because the thus-formed ulcer is scarcely curable in nature and the histopathological change of the ulcer lesion closely resembles to that of human chronic ulcer as compared to the method of cautery-ulcer (refer to Skoryna, 1958) and the method of crumping-cortisone (refer to Umehara, 1965).

[3] = Acute toxicity test, oral; set-up: species or system Female ICR-mice; settings: mouse, in vivo, mortality observed for a week, Litchfield-Wilcoxon
Experimental: Female ICR-mice of body weight of 20 to 24 g, 5 weeks after birth were used.
Eight animal per group were kept in a transparent polycage at room temperature of 23°±1° C., and RH of 60 to 70%.
After minutely pulverizing each one of the present compounds, the pulverized compound was suspended in an aqueous 5% sodium carboxymethylcellulose solution containing 20% of Tween-80. The aqueous suspension was forcibly orally administered by a metal stomach tube, the dose rate having been adjusted by changing the concentration of the present compound in the aqueous suspension.
In some mortal cases, the rat's spontaneous movement was lowered with the reduction of general tension and the rats died as they were.

[4] = system: peptic ulcer; settings: cited from earlier work

Question: Which results are given for `COc1ccccc1C1NC(=O)CCS1` (centres unmarked) [Compound 3, 2-(2-methoxyphenyl)-1,3-perhydrothiazine-4-one]?
Answer: Ulcer coefficient [1]: 2.4 mm^2; Rate of suppression of ulcer [1]: 93.5; Ulcer coefficient [2]: 1.5 mm^2; Rate of suppression of ulcer [2]: 80.2%; LD50 at 168 h [3]: > 8000 mg/kg

Question: For `CC(C)=CCCC(C)=CCCC(C)=CCCC(=O)OCC=C(C)CCC=C(C)C` [Positive control, 3,7dimethyl-2,6-octadienyl-5,9,13-trimethyl-4,8,12-tetradecatrienoate, reference compound], which Ulcer coefficient [1] is on record?
Answer: Its Ulcer coefficient is 32.5 mm^2.

Question: What about the “Rate of suppression of ulcer” value [1] of the same compound?
Answer: The value was 12.2.

Question: And the Ulcer coefficient [2]?
Answer: Its Ulcer coefficient is 6.1 mm^2.

Question: And the “Rate of suppression of ulcer” value [2]?
Answer: The value was 20.0%.

Question: Which Ulcer coefficient [1] does the source give for `COc1ccc(C2NC(=O)CCS2)cc1` (centres unmarked) [Compound 4, 2-(4-methoxyphenyl)-1,3-perhydrothiazine-4-one] here?
Answer: The Ulcer coefficient was 2.0 mm^2.

Question: And the “Rate of suppression of ulcer” value [1]?
Answer: The value was 94.5.

Question: What about the Ulcer coefficient [2] of the same compound?
Answer: The Ulcer coefficient was 1.3 mm^2.

Question: What about the “Rate of suppression of ulcer” value [2] of the same compound?
Answer: The value was 82.8%.

Question: And the LD50 at 168 h [3]?
Answer: The LD50 at 168 h was greater than 8000 mg/kg.

Question: Which results are given for `CC1(C)[C@@H](OC(=O)CCC(=O)O)CC[C@]2(C)[C@H]3C(=O)C=C4[C@@H]5C[C@@](C)(C(=O)O)CC[C@]5(C)CC[C@@]4(C)[C@]3(C)CC[C@@H]12` [carbenoxolone]?
Answer: Side effects [4]: aldosterone-like side effects to cause hypertension and weakening of muscular function; Accelerating effect on ulcer-curing ([4]; commercialized medicine, background): excellent accelerating effect on the ulcer-curing

Question: For `COc1cc(C2NC(=O)CCS2)cc(OC)c1OC` (centres unmarked) [Compound 1, 2-(3,4,5-trimethoxyphenyl)-1,3-perhydrothiazine-4-one], which Ulcer coefficient [1] is on record?
Answer: The Ulcer coefficient was 9.3 mm^2.

Question: And the “Rate of suppression of ulcer” value [1]?
Answer: Its value is 74.9.

Question: What about the Ulcer coefficient [2] of the same compound?
Answer: Its Ulcer coefficient is 2.5 mm^2.

Question: What about the “Rate of suppression of ulcer” value [2] of the same compound?
Answer: Its value is 67.1%.

Question: And the LD50 at 168 h [3]?
Answer: The LD50 at 168 h was 5400 mg/kg.

Question: For `COc1ccc(C2NC(=O)CCS2)cc1OC` (centres unmarked) [Compound 2, 2-(3,4-dimethoxyphenyl)-1,3-perhydrothiazine-4-one], which Ulcer coefficient [1] is on record?
Answer: The Ulcer coefficient was 1.9 mm^2.

Question: What about the “Rate of suppression of ulcer” value [1] of the same compound?
Answer: Its value is 94.3.

Question: And the Ulcer coefficient [2]?
Answer: Its Ulcer coefficient is 2.0 mm^2.

Question: What about the “Rate of suppression of ulcer” value [2] of the same compound?
Answer: Its value is 73.6%.

Question: And the LD50 at 168 h [3]?
Answer: The LD50 at 168 h was greater than 8000 mg/kg.
